Source: patent publication US11833185B2, “Anti-neurodegenerative therapeutic, method of manufacture, and use” (UNIVERSITY OF KENTUCKY RESEARCH FOUNDATION, priority 2017, dated 2023)
Where two headings read alike, the source gives them in different places. Where a SMILES comes first, the peptide text is derived from it.

Legend:
[1] = test system: substantia nigra levels of DA, DOPAC, HVA, 5-HT, 5-HIAA, and NE; experiment: Substantia nigra neurochemistry (RP-HPLC EC) after repeated intranasal administration; type: in vivo, normal Fischer 344 rats; settings: for Turnover ratio 5-HIAA/5-HT / Turnover ratio (HVA + DOPAC)/DA / Turnover ratio DOPAC/DA / Turnover ratio HVA/DA / 5-HIAA / 5-HT / DA / DOPAC / HVA / NE: 5 days a week for 3 weeks, combined left and right substantia nigra, mean; for 5-HIAA / 5-HT / DA / DOPAC / HVA / NE: wet tissue weight
Procedure: (§1) Groups of 12, 3 month old Fischer 344 rats were intranasally dosed 50 microliters (4 single 12.5 microliter administrations, 2 per nare, 5 minutes between each nare administration) of either vehicle, 1.1 mg/mL, or 3.5 mg/mL of AV6403 [Leu-Ala-Pro-Ala-Glu-Asp-NH2] (SEQ ID NO: 1) once a day for 5 days a week, for 3 weeks (5 consecutive days of dosing, 2 off days, repeated total of 3 times). Following day 21, rats were euthanized and brain tissue was recovered and sections removed and weighed for neurochemical analysis by Reverse-Phase High Pressure Liquid Chromatography Electrochemical detection (RP-HPLC EC).
In the SN [TABLE 3], treatment of AV6403 led to about a 13% increase in DOPAC and a 11% reduction of HVA, depending on the dosage, [FIG. 4A-FIG. 4C] resulting in an increase in dopamine turnover (20% [DOPAC/DA] for 3.5 mg/mL dosage; 23% [(HVA+DOPAC)/DA] for 1.1 mg/mL) relative to saline vehicle treated rats [FIG. 5A-FIG. 5B]. Treatment with 1.1 mg/mL AV6403 decreased 5-HT by 10% in the SN, resulting in a 16% increase in serotonin turnover [5-HIAA/5-HT] [TABLE 4]. The higher dosage (3.5 mg/mL AV6403) increased NE levels in the SN by about 23% versus vehicle treated rats, respectively [TABLE 3].
(§2) Groups of 12, 3 month old Fischer 344 rats were intranasally dosed 50 microliters (4 single 12.5 microliter administrations, 2 per nare, 5 minutes between each nare administration) of either vehicle, 1.2 mg/mL, or 3.6 mg/mL of AV7624 [Glu-Ala-Pro-Phe-Glu-Asp-NH2] once a day for 5 days a week, for 3 weeks (5 consecutive days of dosing, 2 off days, repeated total of 3 times). Following day 21, rats were euthanized and brain tissue was recovered and sections removed and weighed for neurochemical analysis by RP-HPLC EC.
In the SN [TABLE 7], treatment with 3.6 mg/mL AV7624 led to about a 23%, 22%, and a 6% decrease in DA, DOPAC, and HVA [FIG. 9A-FIG. 9C], relative to saline vehicle treated rats, with minor effects on dopamine turnover [FIG. 10A-FIG. 10B]. Treatment with 3.6 mg/mL AV7624 decreased 5-HT by 20% and 5-HIAA by about 18% in the SN [TABLE 7], resulting in a minor effect on serotonin turnover [TABLE 8]. NE levels in the SN were decreased (17% and 13%) by both dosages (1.2 mg/mL and 3.6 mg/mL) versus vehicle treated rats, respectively [TABLE 7].

[2] = rat, in vivo, sc, 100 mg/kg
[3] = test system: striatum levels of DA, DOPAC, HVA, 5-HT, 5-HIAA, and NE; experiment: Striatum neurochemistry (RP-HPLC EC) after repeated intranasal administration; type: in vivo, normal Fischer 344 rats; settings: for Turnover ratio 5-H1AA/5-HT / Turnover ratio (HVA + DOPAC)/DA / Turnover ratio DOPAC/DA / Turnover ratio HVA/DA / 5-HIAA / 5-HT / DA / DOPAC / HVA / NE: 5 days a week for 3 weeks, combined left and right striatum, mean; for 5-HIAA / 5-HT / DA / DOPAC / HVA / NE: wet tissue weight
Procedure: as §1
Dopamine [DA], its major metabolites 3,4-Dihydroxy-Phenylacetic Acid (DOPAC) and Homovanillic Acid (HVA), 5-hydroxytryptamine (5-HT, serotonin), its metabolite 5-hydroxyindoleacetic acid (5-HIAA), and norepinephrine (NE) were measured in the striatum and substantia nigra (SN) for each group. In the striatum [TABLE 1], 1.1 mg/mL dosing of AV6403 led to a 20% and 25% reduction of DA and HVA levels [FIG. 1A-FIG. 1C], respectively, resulting in an increase in dopamine turnover (22% [DOPAC/DA] and 16% [[(HVA+DOPAC)/DA]), relative to saline vehicle treated rats [FIG. 2A-FIG. 2B]. […] NE levels were reduced in the striatum with about a 36% reduction for AV6403 1.1 mg/mL dosage versus vehicle [TABLE 1].
as §2
DA, DOPAC, HVA, 5-HT, 5-HIAA, and NE were measured in the striatum and SN for each group. In the striatum [TABLE 5], 3.6 mg/mL dosing of AV7624 led to an approximate 18%, 39%, and 30% reduction of DA, DOPAC, and HVA levels [FIG. 6A-FIG. 6C], respectively, resulting in an about 18% decrease in dopamine turnover ([DOPAC/DA] and [(HVA+DOPAC)/DA]), relative to saline vehicle treated rats [FIG. 7A-FIG. 7B]. […] NE levels were reduced in the striatum in a dose dependent manner, with about a 32% reduction for the AV7624 3.6 mg/mL dosage versus vehicle [TABLE 5]

[4] = Plasma levels by LC-MS/MS after subcutaneous administration; type: in vivo, rat; settings: for Cmax: rat, plasma, sc, read-out: maximum plasma levels
MN9D neuronal cells [5] = experiment: LIVE/DEAD and JC-1 assays for toxicity and loss of mitochondrial potentials; settings: 100 nM, 1 and 3 hours post treatment
Procedure: (§3) Testing involved permutations of size and diversifying amino acid sequence at each residue position. Sequence design began with Proline-Proline-Glutamate-Alanine-Proline-Alanine-Glutamate-Aspartate-Arginine-Serine-Leucine-NH2. […] These properties were tested using the dopaminergic MN9D neuronal cell line. Each candidate peptide sequence was dissolved in citrate buffer and added to MN9D cells (Choi et al., 1992) that were cultured in Dulbecco's Modified Eagle's Medium [DMEM (containing pyridoxol HCl); Sigma, St. Louis, MO] supplemented with 10% Fetal Bovine serum (HyClone, Logan, UT), 50 U/ml penicillin and streptomycin to a final 100 nM concentration. Using LIVE/DEAD and JC-1 assays in MN9D neuronal cells, individual library sequences were measured for toxicity and loss of mitochondrial potentials at 1 and 3 hours post treatment. […] The remaining sequences were then tested for their ability to provide protection against neurotoxins rotenone, 1-methyl-4-phenylpyridinium (MPP+), and trichloromethyl-1,2,3,4-tetrahydro-β-carboline (TaClo).

MN9D neuronal cells [6] = experiment: Protection of mitochondrial potentials against rotenone, MPP+ and TaClo-induced cytotoxicity; type: cell-based; settings: 100 nM pretreatment, 1, 3, 12, 24 hours
Procedure: as §3

depression = settings: person, intranasal spray 50 mg daily for 270 days
Procedure: A person presents with the diagnosis of depression. They are administered peptide by intranasal spray at a dosage of 50 mg daily for 270 days. At 1, 90, 180, 270 and 360 days they are tested/retested with a battery of mental status tests including Hamilton Depression Scale (HAMD), Mini Mental Status Exam (MMSE), Beck Depression Index (BDI), Montgomery-Asberg Depression Rating Scale (MADRS), Clinical Global Impression Scale (CGI), Patient Global Impression Scale (PGI), Structural Clinical Interview for Diagnostic and Statistic Manual of Mental Disorders IV (SCID).

[7] = SN, depending on the dosage, relative to saline vehicle treated rats
[8] = 1.1 mg/mL intranasal, striatum, relative to saline vehicle treated rats
[9] = 1.1 mg/mL repeated intranasal, striatum, relative to saline treated rats

CC(C)C[C@H](N)C(=O)N[C@@H](C)C(=O)N1CCC[C@H]1C(=O)N[C@@H](C)C(=O)N[C@@H](CCC(=O)O)C(=O)N[C@@H](CC(=O)O)C(N)=O [AV6403, Leu-Ala-Pro-Ala-Glu-Asp-NH2] (H-LAPAED-NH2; N-terminus assumed)
decrease of 5-HT ([1]; 1.1 mg/mL intranasal, SN): 10%
increase in serotonin turnover [5-HIAA/5-HT] ([1]; 1.1 mg/mL intranasal, SN): 16%
increase in dopamine turnover [(HVA+DOPAC)/DA] ([1]; 1.1 mg/mL intranasal, SN, relative to saline vehicle treated rats): 23%
Turnover ratio 5-HIAA/5-HT ([1]; 1.1 mg/ml intranasal): 0.58
Turnover ratio (HVA + DOPAC)/DA ([1]; 1.1 mg/ml intranasal): 0.37
Turnover ratio DOPAC/DA ([1]; 1.1 mg/ml intranasal): 0.22
Turnover ratio HVA/DA ([1]; 1.1 mg/ml intranasal): 0.15
5-HIAA ([1]; 1.1 mg/ml intranasal): 552 ng/g
5-HT ([1]; 1.1 mg/ml intranasal): 1014 ng/g
DA ([1]; 1.1 mg/ml intranasal): 1122 ng/g
DOPAC ([1]; 1.1 mg/ml intranasal): 232 ng/g
HVA ([1]; 1.1 mg/ml intranasal): 102 ng/g
NE ([1]; 1.1 mg/ml intranasal): 554 ng/g
increase in dopamine turnover [DOPAC/DA] ([1]; 3.5 mg/mL intranasal, SN, relative to saline vehicle treated rats): 20%
increase of NE levels ([1]; 3.5 mg/mL intranasal, SN, versus vehicle treated rats): about 23%
Turnover ratio 5-HIAA/5-HT ([1]; 3.5 mg/ml intranasal): 0.54
Turnover ratio (HVA + DOPAC)/DA ([1]; 3.5 mg/ml intranasal): 0.34
Turnover ratio DOPAC/DA ([1]; 3.5 mg/ml intranasal): 0.24
Turnover ratio HVA/DA ([1]; 3.5 mg/ml intranasal): 0.11
5-HIAA ([1]; 3.5 mg/ml intranasal): 546 ng/g
5-HT ([1]; 3.5 mg/ml intranasal): 1050 ng/g
DA ([1]; 3.5 mg/ml intranasal): 1096 ng/g
DOPAC ([1]; 3.5 mg/ml intranasal): 253 ng/g
HVA ([1]; 3.5 mg/ml intranasal): 113 ng/g
NE ([1]; 3.5 mg/ml intranasal): 644 ng/g
increase in DOPAC [1, 7]: ~13%
reduction of HVA [1, 7]: 11%
half-life [2]: 50 to 60 min
increase in dopamine turnover [(HVA+DOPAC)/DA] [3, 8]: 16%
increase in dopamine turnover [DOPAC/DA] [3, 8]: 22%
reduction of DA levels [3, 8]: 20%
reduction of HVA levels [3, 8]: 25%
reduction of NE levels ([3]; 1.1 mg/mL intranasal, striatum, versus vehicle): ~36%
increase in turnover [5-HIAA/5-HT] [3, 9]: 19%
reduction of 5-HIAA [3, 9]: ~19%
reduction of 5-HT [3, 9]: ~32%
Turnover ratio 5-H1AA/5-HT ([3]; 1.1 mg/ml intranasal): 1.28
Turnover ratio (HVA + DOPAC)/DA ([3]; 1.1 mg/ml intranasal): 0.36
Turnover ratio DOPAC/DA ([3]; 1.1 mg/ml intranasal): 0.28
Turnover ratio HVA/DA ([3]; 1.1 mg/ml intranasal): 0.08
5-HIAA ([3]; 1.1 mg/ml intranasal): 326 ng/g
5-HT ([3]; 1.1 mg/ml intranasal): 257 ng/g
DA ([3]; 1.1 mg/ml intranasal): 9425 ng/g
DOPAC ([3]; 1.1 mg/ml intranasal): 2618 ng/g
HVA ([3]; 1.1 mg/ml intranasal): 699 ng/g
NE ([3]; 1.1 mg/ml intranasal): 45 ng/g
changes in DA turnover ([3]; 3.5 mg/mL intranasal, striatum): minor changes
increase of striatal DA levels ([3]; 3.5 mg/mL intranasal, striatum): 8%
increase of striatal DOPAC levels ([3]; 3.5 mg/mL intranasal, striatum): 11%
Turnover ratio 5-H1AA/5-HT ([3]; 3.5 mg/ml intranasal): 1.11
Turnover ratio (HVA + DOPAC)/DA ([3]; 3.5 mg/ml intranasal): 0.31
Turnover ratio DOPAC/DA ([3]; 3.5 mg/ml intranasal): 0.23
Turnover ratio HVA/DA ([3]; 3.5 mg/ml intranasal): 0.08
5-HIAA ([3]; 3.5 mg/ml intranasal): 437 ng/g
5-HT ([3]; 3.5 mg/ml intranasal): 393 ng/g
DA ([3]; 3.5 mg/ml intranasal): 12475 ng/g
DOPAC ([3]; 3.5 mg/ml intranasal): 2922 ng/g
HVA ([3]; 3.5 mg/ml intranasal): 935 ng/g
NE ([3]; 3.5 mg/ml intranasal): 66 ng/g
change of 5-HT, 5-HIAA and turnover ([3]; higher dosage (3.5 mg/mL) intranasal, striatum, relative to saline treated rats): small increases
plasma lifetime as compared to the extracellular brain levels ([4]; 30 and 100 mg/kg s.c.): longer lifetime
time of maximum plasma levels post administration ([4]; 30 and 100 mg/kg s.c.): 20 to 40 min
Cmax ([4]; 30 mg/kg s.c.): 3500 ng/mL
Cmax ([4]; 100 mg/kg s.c.): 6000 ng/mL

C[C@H](NC(=O)[C@@H]1CCCN1C(=O)[C@H](C)NC(=O)[C@@H](N)CCC(=O)O)C(=O)N[C@@H](CCC(=O)O)C(=O)N[C@@H](CC(=O)O)C(N)=O [SEQ ID NO: 11, Glutamate-Alanine-Proline-Alanine-Glutamate-Aspartate-NH2] (H-EAPAED-NH2; N-terminus assumed)
toxicity (MN9D neuronal cells [5]): low toxicity
protection against neurotoxins (rotenone, MPP+, TaClo) (MN9D neuronal cells [6]): protection against neurotoxin exposure at all time points measured

Ac-Leucine-D-Methionine-Proline-Alanine-deuterated Serine-Phenylalanine [SEQ ID NO: 9]
HAMD from day 1 over 360 days (depression): improvement in HAMD
